Results from US7745420B2, “Methods for increasing in vivo efficacy of oligonucleotides and inhibiting inflammation in mammals” (Topigen Pharmaceutique, Inc., priority 2001, dated 2010).
[DAP] = 2,6-diaminopurine base (2-amino-2'-deoxyadenosine) replacing adenine

Tests used:
[1] = system: human immunodeficiency virus (HIV); conditions: Balzarini et al. 1987; cited from earlier work
lungs/airways = conditions: in vivo; cited from earlier work
[2] = system: common Beta chain of human GM-CSF, IL-3 and IL-5 receptor; assay: Semi-quantitative RT-PCR of common beta chain mRNA in U937 cells treated with antisense; type: cell-based; conditions: compared with AS107 containing adenosine, G3PDH housekeeping gene
Method: Experiments were performed to assess whether antisense oligonucleotides described in international application WO 99/66037 (incorporated herein) directed against the common beta sub-unit of the IL-3, IL-5 and GM-CSF receptor, could inhibit the expression and the function of this receptor when modified by replacing adenosine by either 2-amino-2′-deoxyadenosine or inosine. TF-1 and U937 cells express high levels of GM-CSF receptors. In addition, TF-1 cells are dependent on GM-CSF for survival. These cells were cultured in RPMI 1640 supplemented with 10% heat-inactivated fetal calf serum, penicillin, streptomycin and 1-glutamine at 37° C. in 5% CO2 (the TF-1 cells were supplemented with GM-CSF). […] The sequence for 107A-DAP was: 5′-GGGTCTGCDapGCGGGDapTGGT-3′ (SEQ ID NO:21); the sequence for 107A-inosine (107A-I) was: 5′-GGGTCTGCIGCGGGIT GGT-3′ (SEQ ID NO:22). The cells were retrieved and washed 3 times. RNA was then retrieved and the presence of the beta chain of the receptor was assessed by semi-quantitative RT-PCR.

[3] = system: common Beta chain of human GM-CSF, IL-3 and IL-5 receptor; assay: Semi-quantitative RT-PCR of common beta chain mRNA in TF-1 cells treated with antisense; type: cell-based; conditions: TF1 cells; compared with AS107 containing adenosine
Method: Experiments were performed to assess whether antisense oligonucleotides described in international application WO 99/66037 (incorporated herein) directed against the common beta sub-unit of the IL-3, IL-5 and GM-CSF receptor, could inhibit the expression and the function of this receptor when modified by replacing adenosine by either 2-amino-2′-deoxyadenosine or inosine. TF-1 and U937 cells express high levels of GM-CSF receptors. In addition, TF-1 cells are dependent on GM-CSF for survival. These cells were cultured in RPMI 1640 supplemented with 10% heat-inactivated fetal calf serum, penicillin, streptomycin and 1-glutamine at 37° C. in 5% CO2 (the TF-1 cells were supplemented with GM-CSF). For 12 hours they were either cultured in medium alone or medium with sense (107S: 5′-ACCAT CCCGCTGCAGACCC-3′ (SEQ ID NO:19) or antisense (107A: 5′-GGGTCTGCAGCGGGATGGT-3′; SEQ ID NO:20) oligonucleotides to the common beta sub-unit of the IL-3, IL-5 and GM-CSF receptor. The sequence for 107A-DAP was: 5′-GGGTCTGCDapGCGGGDapTGGT-3′ (SEQ ID NO:21); the sequence for 107A-inosine (107A-I) was: 5′-GGGTCTGCIGCGGGIT GGT-3′ (SEQ ID NO:22). The cells were retrieved and washed 3 times. RNA was then retrieved and the presence of the beta chain of the receptor was assessed by semi-quantitative RT-PCR.

Nc1nc(N)c2ncn([C@H]3CC[C@@H](CO)O3)c2n1 [2-amino-2′,3′-dideoxyadenosine]
inhibition of HIV replication in vitro [1]: capable of selectively inhibiting

OC[C@H]1O[C@@H](n2cnc3c(O)ncnc32)[C@H](O)[C@@H]1O [inosine]
bronchoconstriction of the lungs/airways compared to adenosine (lungs/airways): does not cause bronchoconstriction

5′-GGGTCTGCDapGCGGGDapTGGT-3′ (DNA GGGTCTGCNGCGGGNTGGT; DNA, [DAP] at 9, 15, backbone and methylation of C not given here) [AS107-DAP]
blocking the mRNA for the common Beta chain, semi-quantitative PCR [2]: at least equally effective | blocking mRNA expression of the common Beta chain, semi-quantitative PCR [3]: at least equally effective
